# Data: publication PMC8421423, “Cellular model system to dissect the isoform-selectivity of Akt inhibitors” (Nature Communications, 2021)
# Values joined by “and” are separate entries in the source; they are usually repeats but may differ in a detail not shown here. Equal values may be shown once. Read-outs that look alike come from different tables or passages of the source.
# How the values were obtained:
# pAkt2 = test: Western blot analysis, PANC1 cells; type: cell-based, human; settings: PANC1, 24-h treatment
# Experimental: Cells were seeded into six-well tissue culture plates (Sarstedt) (BaF3 myr-Akt1/2/3: 10^6 cells/well, PANC1: 250.000 cells/well). […] Cell lysis was initiated by addition of 100 μL RIPA buffer (Cell Signaling Technology) per well supplemented with phosphatase and protease inhibitor cocktails (Sigma) followed by incubation on ice for 20 min. Cells were then harvested by scraping (PANC1) or centrifugation (BaF3). Whole cell lysates were cleared by centrifugation at 14,000×g/4 °C for 10 min and transferred into fresh, pre-cooled microcentrifuge tubes. Protein concentrations were determined using the Pierce BCA protein assay (Thermo) as per manufacturer’s instructions. Equal amounts of protein were separated by SDS-PAGE and transferred to Immobilon-FL PVDF membranes (Merck Millipore) using Pierce™ 1-step transfer buffer (Thermo) and the Pierce™ Power Blotter (Thermo). Membranes were washed for 5 min with ddH2O, blocked with Intercept®Blocking Buffer TBS (Li-Cor) for 1 h at room temperature, and then incubated with primary antibodies diluted in Intercept®Blocking Buffer TBS overnight at 4 °C with gentle agitation. On the next day, the membranes were washed three times with TBS-T (50 mM Tris, 150 mM NaCl, 0.05 % Tween 20, pH 7.4) for 5 min before being incubated with secondary antibodies diluted in Intercept®Blocking Buffer TBS for 1 h at room temperature with gentle agitation. Finally, the membranes were washed three times for 5 min with TBS-T and then scanned using an Odyssey®CLx imaging system (Li-Cor).
# Ba/F3^myr-Akt2 cells = test: CellTiter-Glo cell viability assay; settings: for cell viability: CTG
# Ba/F3^myr-Akt1 cells = test: CellTiter-Glo cell viability assay; settings: for cell viability: CTG
# Akt2 [1] = target: T1, Akt2 (Homo sapiens, UniProt P31751); test: Cellular thermal shift assay (CETSA) in PANC1 cells; type: cell-based; design: purchased Thermo Fisher Scientific #PV3184; settings: for tAkt2 %: CETSA PANC1, 1 µM
# T1 sequence (P31751 whole entry): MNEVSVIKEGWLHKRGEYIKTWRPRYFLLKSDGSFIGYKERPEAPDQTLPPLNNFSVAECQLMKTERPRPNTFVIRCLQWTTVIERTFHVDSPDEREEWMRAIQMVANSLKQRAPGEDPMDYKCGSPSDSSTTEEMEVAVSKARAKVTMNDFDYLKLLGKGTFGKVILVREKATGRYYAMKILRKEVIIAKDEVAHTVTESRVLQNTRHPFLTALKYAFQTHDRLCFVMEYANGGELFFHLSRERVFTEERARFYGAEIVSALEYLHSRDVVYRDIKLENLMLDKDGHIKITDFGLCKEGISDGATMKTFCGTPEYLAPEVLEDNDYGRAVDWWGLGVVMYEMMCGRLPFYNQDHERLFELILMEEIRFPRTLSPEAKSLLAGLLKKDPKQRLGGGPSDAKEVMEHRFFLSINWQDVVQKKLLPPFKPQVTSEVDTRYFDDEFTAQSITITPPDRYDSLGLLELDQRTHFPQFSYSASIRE
# Experimental: (§1) Cells were seeded into 100 mm tissue culture plates (Sarstedt) (PANC1: 10^6 cells). After 24 h incubation, cells were treated with 1 µM of inhibitors or DMSO and were incubated for 4.5 h. Cells were washed twice with ice-cold PBS and then suspended in 1 mL PBS. Cells were collected and separated into equal volumes (100 µL). The aliquots were treated individually with different temperatures for 3 min, followed by a 3 min incubation at room temperature. Cell lysis was initiated by adding 100 µL RIPA buffer and 2 freeze-thaw cycles in liquid nitrogen. The lysates were centrifuged at 21,130×g for 20 min at room temperature. The supernatants were transferred into fresh, pre-cooled microcentrifuge tubes, and analyzed by western blot analysis as described above.
# [2] = CellTiter-Glo cell viability assay; type: cell-based, murine; settings: mouse, parental Ba/F3 cells, CTG, parental, single replicates
# parental Ba/F3 cells = test: CellTiter-Glo cell viability assay; type: cell-based, murine; settings: for cell viability: CTG, parental
# Akt3 [3] = target: T2, Akt3 (Homo sapiens, UniProt Q9Y243); test: STK HTRF KinEASE activity-based assay (IC50)
# T2 sequence (Q9Y243 whole entry): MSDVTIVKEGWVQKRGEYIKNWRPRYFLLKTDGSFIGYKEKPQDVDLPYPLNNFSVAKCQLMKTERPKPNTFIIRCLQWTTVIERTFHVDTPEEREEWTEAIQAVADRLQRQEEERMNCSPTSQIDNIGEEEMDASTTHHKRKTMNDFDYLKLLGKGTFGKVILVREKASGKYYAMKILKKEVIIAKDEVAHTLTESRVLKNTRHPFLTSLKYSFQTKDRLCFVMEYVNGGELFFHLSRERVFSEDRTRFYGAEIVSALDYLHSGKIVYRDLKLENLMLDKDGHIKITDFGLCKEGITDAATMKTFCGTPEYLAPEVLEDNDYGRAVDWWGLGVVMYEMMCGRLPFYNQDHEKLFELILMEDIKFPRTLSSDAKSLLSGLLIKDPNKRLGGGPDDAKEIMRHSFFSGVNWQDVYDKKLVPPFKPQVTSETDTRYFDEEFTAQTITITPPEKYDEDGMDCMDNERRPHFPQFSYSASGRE
# Ba/F3^myr-Akt3 cells = test: CellTiter-Glo cell viability assay; settings: for cell viability: CTG
# Experimental: On day 0, cells were plated into white 384-well cell culture plates (Greiner Bio-One) using a Multidrop reagent dispenser (Thermo Fisher Scientific) at cell numbers that ensure linear and optimal luminescent signal intensity (Ba/F3myr-Akt1: 600 cells/well, Ba/F3myr-Akt2: 800 cells/well, Ba/F3myr-Akt3: 800 cells/well). […] Cell viability was analyzed on day 4 using the CellTiter-Glo Assay (Promega) as per the manufacturer’s instructions. […] All experimental points were measured in duplicates for each plate and were replicated in at least three plates.
# Akt2 [4] = target: T1, Akt2; test: STK HTRF KinEASE activity-based assay (IC50)
# Experimental: The biochemical half maximal inhibitory concentrations (IC50) were determined with the STK HTRF KinEASE assay (Cisbio) according to the manufactor’s instructions. Briefly: 5 µL Kinase solution and 2.5 µL inhibitor solution (8% DMSO in HTRF buffer) were incubated for 1 h before the reaction was started by addition of 2.5 µL starting solution containing ATP and substrate peptide. […] After reaction completion (Akt1: 60 min, Akt2: 20 min, Akt3: 15 min), 10 µL of stop solution were added. […] The quotient of both intensities were recorded at eight different inhibitor concentrations and data fit to a Hill 4-parameter equation with Quattro software suite (Quattro Research GmbH, Martinsried, Germany). Each reaction was performed in duplicates and at least three independent determinations of each IC50 were made.
# Akt1 [5] = target: T3, Akt1 (Homo sapiens, UniProt P31749); test: Cellular thermal shift assay (CETSA) in PANC1 cells; type: cell-based; design: purchased ProQinase #1379-0000-2; settings: CETSA PANC1, 1 µM
# T3 sequence (P31749 whole entry): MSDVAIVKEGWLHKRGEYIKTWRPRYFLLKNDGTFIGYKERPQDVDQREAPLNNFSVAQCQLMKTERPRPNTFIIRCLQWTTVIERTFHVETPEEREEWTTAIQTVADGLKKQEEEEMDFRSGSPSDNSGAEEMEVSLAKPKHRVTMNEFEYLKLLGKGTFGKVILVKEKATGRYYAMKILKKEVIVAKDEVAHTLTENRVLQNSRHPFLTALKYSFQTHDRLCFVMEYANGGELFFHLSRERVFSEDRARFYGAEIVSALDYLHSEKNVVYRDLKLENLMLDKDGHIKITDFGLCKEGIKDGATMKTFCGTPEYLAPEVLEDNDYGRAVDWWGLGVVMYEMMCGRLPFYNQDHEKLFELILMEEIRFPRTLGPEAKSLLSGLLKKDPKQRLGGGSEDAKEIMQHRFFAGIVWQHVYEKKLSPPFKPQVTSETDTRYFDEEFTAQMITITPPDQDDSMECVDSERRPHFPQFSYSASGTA
# Experimental: as §1
# Akt1 [6] = target: T3, Akt1; test: STK HTRF KinEASE activity-based assay (IC50)
# Akt3 [7] = target: T2, Akt3; test: Cellular thermal shift assay (CETSA) in PANC1 cells; type: cell-based; design: purchased ProQinase #1578-0000-1; settings: CETSA PANC1, 1 µM
# Experimental: as §1
# [8] = cell viability assay Ba/F3 myr-Akt cells, log units
structure (smiles),measurement,setting,value
C=CC(=O)Nc1ccc2[nH]c(=O)n(C3CCN(Cc4ccc(-c5ncc(Cc6cn[nH]c6)cc5-c5ccccc5)cc4)CC3)c2c1 [compound 14],pAkt2 level (immunoblot),pAkt2,efficient downregulation of Akt2 phosphorylation
same,cell viability,"Ba/F3^myr-Akt2 cells; myr-Akt2, 0.1 nM, single replicates, 0.0001 µM",101.1 % of control and 98.7 % of control
same,cell viability,"Ba/F3^myr-Akt2 cells; myr-Akt2, 5000 nM, single replicates, 5 µM",0.2 % of control and 0.55 % of control and 2.5 % of control
same,EC50,"Ba/F3^myr-Akt2 cells; Mus musculus, read-out: CTG BaF3myr-Akt2, Mean, mean of replicates",529 nM
same,viability at 0.0001 µM,"Ba/F3^myr-Akt2 cells; Mus musculus, read-out: cell viability, CTG, myr-Akt2, 0.1 nM, single replicates",104%
same,EC50,"Ba/F3^myr-Akt2 cells; read-out: CTG BaF3myr-Akt2, individual determinations, single replicates",932 nM and 277 nM and 378 nM
same,cell viability,"Ba/F3^myr-Akt1 cells; myr-Akt1, 0.1 nM, single replicates, 0.0001 µM",103.7 % of control and 102.7 % of control
same,cell viability,"Ba/F3^myr-Akt1 cells; myr-Akt1, 5000 nM, single replicates, 5 µM",79.7 % of control and 82.2 % of control
same,EC50,"Ba/F3^myr-Akt1 cells; Mus musculus, read-out: CTG BaF3myr-Akt1, Mean, mean of replicates",7560 nM
same,EC50,"Ba/F3^myr-Akt1 cells; Mus musculus, read-out: CTG BaF3myr-Akt1, individual determinations, single replicates",6920 nM
same,viability at 0.0001 µM,"Ba/F3^myr-Akt1 cells; Mus musculus, read-out: cell viability, CTG, myr-Akt1, 0.1 nM, single replicates",100%
same,viability at 5 µM,"Ba/F3^myr-Akt1 cells; Mus musculus, read-out: cell viability, CTG, myr-Akt1, 5000 nM, single replicates",71.9%
same,"Log ratio EC50 [Akt] / EC50 [Akt], Akt1 / Akt2",Ba/F3^myr-Akt1 cells; [8],1.15
same,EC50,"Ba/F3^myr-Akt1 cells; read-out: CTG BaF3myr-Akt1, individual determinations, single replicates",7890 nM and 7860 nM
same,tAkt2 %,Akt2 [1]; temperature 39.9,100.00%
same,tAkt2 %,Akt2 [1]; temperature 43.5,102.39%
same,tAkt2 %,Akt2 [1]; temperature 48.4,91.99%
same,tAkt2 %,Akt2 [1]; temperature 53.8,80.16%
same,tAkt2 %,Akt2 [1]; temperature 58.1,72.88%
same,tAkt2 %,Akt2 [1]; temperature 61.4,43.24%
same,tAkt2 %,Akt2 [1]; temperature 65.6,13.13%
same,tAkt2 %,Akt2 [1]; temperature 70.9,8.83%
same,tAkt2 %,Akt2 [1]; temperature 76,2.38%
same,tAkt2 %,Akt2 [1]; temperature 79.9,0.00%
same,"thermal stabilization of Akt2 (CETSA, in words)","Akt2 [1]; PANC1, 1 µM",significant thermal stabilization of Akt2
same,"viability at 3 days, 0.0001 µM","[2]; 0.1 nM, read-out: cell viability",101%
same,"viability at 3 days, 5 µM",[2]; 5000 nM,105%
same,cell viability,"parental Ba/F3 cells; 0.1 nM, single replicates, 0.0001 µM",100.0 % of control and 99.0 % of control
same,cell viability,"parental Ba/F3 cells; 5000 nM, single replicates, 5 µM",99.0 % of control and 97.0 % of control
same,EC50,"parental Ba/F3 cells; Mus musculus, BaF3, parental cells, mean of replicates, read-out: CTG BaF3, Mean",8640 nM
same,EC50,"parental Ba/F3 cells; Mus musculus, BaF3, parental cells, single replicates, read-out: CTG BaF3, individual determinations",8400 nM
same,EC50,"parental Ba/F3 cells; parental cells, single replicates, read-out: CTG BaF3, individual determinations",7670 nM and 9860 nM
same,IC50,"Akt3 [3]; HTRF IC50 Akt3, Mean, mean of replicates",356 nM
same,IC50,"Akt3 [3]; HTRF IC50 Akt3, individual determinations, single replicates",231 nM and 426 nM and 410 nM
same,IC50,"Akt3 [3]; IC50 Akt3, HTRF, ATP at KM, 1 h preincubation",356 ± 88 nM
same,cell viability,"Ba/F3^myr-Akt3 cells; myr-Akt3, 0.1 nM, single replicates, 0.0001 µM",114.7 % of control and 87.0 % of control and 100.0 % of control
same,cell viability,"Ba/F3^myr-Akt3 cells; myr-Akt3, 5000 nM, single replicates, 5 µM",35.1 % of control and 52.3 % of control and 67.7 % of control
same,EC50,"Ba/F3^myr-Akt3 cells; Mus musculus, read-out: CTG BaF3myr-Akt3, Mean, mean of replicates",4470 nM
same,EC50,"Ba/F3^myr-Akt3 cells; Mus musculus, read-out: CTG BaF3myr-Akt3, individual determinations, single replicates",4320 nM
same,"Log ratio EC50 [Akt] / EC50 [Akt], Akt3 / Akt2",Ba/F3^myr-Akt3 cells; [8],-0.93
same,EC50,"Ba/F3^myr-Akt3 cells; read-out: CTG BaF3myr-Akt3, individual determinations, single replicates",4620 nM and 4470 nM
same,IC50,"Akt2 [4]; HTRF IC50 Akt2, Mean, mean of replicates",23.9 nM
same,IC50,"Akt2 [4]; HTRF IC50 Akt2, individual determinations, single replicates",21.3 nM and 30 nM and 19.2 nM and 20.5 nM
same,IC50,"Akt2 [4]; IC50 Akt2, HTRF, ATP at KM, 1 h preincubation",23 ± 4 nM
same,tAkt1 %,Akt1 [5]; temperature 39.9,100.00%
same,tAkt1 %,Akt1 [5]; temperature 43.5,52.07%
same,tAkt1 %,Akt1 [5]; temperature 48.4,40.09%
same,tAkt1 %,Akt1 [5]; temperature 53.8,35.60%
same,tAkt1 %,Akt1 [5]; temperature 58.1,20.87%
same,tAkt1 %,Akt1 [5]; temperature 61.4,22.87%
same,tAkt1 %,Akt1 [5]; temperature 65.6,16.43%
same,tAkt1 %,Akt1 [5]; temperature 70.9,3.87%
same,tAkt1 %,Akt1 [5]; temperature 76,1.25%
same,tAkt1 %,Akt1 [5]; temperature 79.9,0.00%
same,IC50,"Akt1 [6]; HTRF IC50 Akt1, Mean, mean of replicates",527 nM
same,IC50,"Akt1 [6]; HTRF IC50 Akt1, individual determinations, single replicates",543 nM and 509 nM and 531 nM
same,IC50,"Akt1 [6]; IC50 Akt1, HTRF, ATP at KM, 1 h preincubation",527 ± 14 nM
same,"Log ratio IC50 [Akt] / IC50 [Akt], Akt1 / Akt2","Akt1 [6]; biochemical activity based assay, log units",1.35
same,tAkt3 %,Akt3 [7]; temperature 39.9,100.00%
same,tAkt3 %,Akt3 [7]; temperature 43.5,108.88%
same,tAkt3 %,Akt3 [7]; temperature 48.4,31.40%
same,tAkt3 %,Akt3 [7]; temperature 53.8,28.60%
same,tAkt3 %,Akt3 [7]; temperature 58.1,24.86%
same,tAkt3 %,Akt3 [7]; temperature 61.4,22.71%
same,tAkt3 %,Akt3 [7]; temperature 65.6,8.41%
same,tAkt3 %,Akt3 [7]; temperature 70.9,4.62%
same,tAkt3 %,Akt3 [7]; temperature 76,1.45%
same,tAkt3 %,Akt3 [7]; temperature 79.9,0.00%
